Measured values reported in patent US20220152100A1, “METHODS FOR CONTROLLED ACTIVATION OR ELIMINATION OF THERAPEUTIC CELLS” (Bellicum Pharmaceuticals, Inc., priority 2014, published 2022).

System: gene-modified allodepleted cells (SFG.iCasp9.2A.CD19)
Experiment: AP20187-induced apoptosis of gene-modified allodepleted T cells (annexin V/7-AAD)
Format: cell-based, human
Method: Suicide gene functionality was assessed by adding a small molecule synthetic homodimerizer, AP20187 (Ariad Pharmaceuticals; Cambridge, Mass.), at 10 nM final concentration the day following CD19 immunomagnetic selection. Cells were stained with annexin V and 7-amino-actinomycin (7-AAD)(BD Pharmingen) at 24 hours and analyzed by flow cytometry. Cells negative for both annexin V and 7-AAD were considered viable, cells that were annexin V positive were apoptotic, and cells that were both annexin V and 7-AAD positive were necrotic. The percentage killing induced by dimerization was corrected for baseline viability as follows: Percentage killing=100%−(% Viability in AP20187-treated cells÷% Viability in non-treated cells).
Cells were maintained in T cell medium containing 50 U/ml IL-2 until 22 days after transduction. A portion of cells was reactivated on 24-well plates coated with […] OKT3 and 1 μg/ml anti-CD28 (Clone CD28.2, BD Pharmingen, San Jose, Calif.) for 48 to 72 hours. CD19 expression and suicide gene function in both reactivated and non-reactivated cells were measured on day 24 or 25 post transduction.
The day following immunomagnetic selection, 10 nM of the chemical inducer of dimerization, AP20187, was added to induce apoptosis, which appeared within 24 hours. […] Killing efficiency after correction for baseline viability was about 92.9%±3.8%. Large-scale CD19 selection produced cells that were killed with similar efficiency as small-scale selection: mean viability with and without AP20187, and percentage killing, in large and small scale were about 3.9%, about 84.0%, about 95.4% (n=3) and about 6.6%, about 79.3%, about 91.4% (n=5) respectively. AP20187 was non-toxic to non-transduced cells: viability with and without AP20187 was about 86%±9% and 87%±8% respectively (n=6).
To assess the stability of transgene expression and function, cells were maintained in T cell culture medium and low dose IL-2 (50 U/ml) until […] after transduction. A portion of cells was then reactivated with OKT3/anti-CD28. CD19 expression was analyzed by flow cytometry 48 to 72 hours later, and suicide gene function was assessed by treatment with 10 nM AP20187. The obtained are for cells from day 5 post transduction (ie, 1 day after CD 19 selection) and day 24 post transduction, with or without 48-72 hours of reactivation (5 experiments). In 2 experiments, CD25 selection was performed after OKT3/aCD28 activation to further enrich activated cells. Error bars represent standard deviation. * indicates p<0.05 when compared to cells from day 5 post transduction. By day 24, surface CD19 expression fell from about 98%±1% to about 88%±4% (p<0.05) with a parallel decrease in mean fluorescence intensity (MFI) from 793±128 to 478±107 (p<0.05) (see FIG. 13B). Similarly, there was a significant reduction in suicide gene function: residual viability was 19.6±5.6% following treatment with AP20187; after correction for baseline viability of 54.8±20.9%, this equated to killing efficiency of only 63.1±6.2%.
To determine whether the decrease in transgene expression with time was due to reduced transcription following T cell quiescence or to elimination of transduced cells, a portion of cells were reactivated on day 22 post transduction with OKT3 and anti-CD28 antibody. […] CD19 expression increased from about 88%±4% to about 93%±4% (p<0.01) and CD19 MFI increased from 478±107 to 643±174 (p<0.01). […] Killing of the CD25 negative fraction was 78.6±9.1%.

[1] = 10 nM, 24 hours, day after CD19 selection

## CC[C@H](C(=O)N1CCCC[C@H]1C(=O)O[C@H](CCc1ccc(OC)c(OC)c1)c1cccc(OCC(=O)NCC(CNC(=O)COc2cccc([C@@H](CCc3ccc(OC)c(OC)c3)OC(=O)[C@@H]3CCCCN3C(=O)[C@@H](CC)c3cc(OC)c(OC)c(OC)c3)c2)CN(C)C)c1)c1cc(OC)c(OC)c(OC)c1 [AP20187]
[1]
  killing efficiency after correction for baseline viability: about 92.9%±3.8
  viable cells (annexin V and 7-AAD negative): about 5.5%±2.5
OKT3/aCD28-reactivated cells, day 24 or 25
  killing efficiency: ~84.6%±8.0
small-scale CD19 selection, n=5
  mean viability: about 6.6%
With AP20187, n=6
  viability of non-transduced cells: about 86%±9
